Measurements from patent US11235001B2, “RUNX inhibitor” (KYOTO UNIVERSITY, priority 2016, dated 2022).
Read-outs that look alike come from different tables or passages of the source.

Assays:
SU-Ph2 cells = assay: Cell growth inhibition assay, SU-Ph2 cells; type: cell-based, human; conditions: SU-Ph2, 48 hours
IL3, CSF2 and CSF2RB = assay: qRT-PCR of RUNX1 target genes in MV4-11 cells; type: cell-based, human; conditions: 5 μM, 6 hours
[1] = Acute toxicological testing in NOG mice; type: in vivo, mouse
Method: To check the pharmacological safety of the PI polyamide conjugates in vivo, acute toxicological testing of Chb-M′ in mice was first performed. NOD/Shi-scid,IL-2RγKO (NOG) mice were injected with Chb-M′ at various concentrations. Complete blood cell counts, blood biochemistry and body weight were measured (n=5).

SU/SR cells [2] = assay: Xenograft ALL mouse model (SU/SR); type: in vivo
BCR-ABL fusion protein = assay: Western blotting of BCR-ABL fusion protein in CML and PhALL cells; type: cell-based, human; conditions: 3 μM or 1 μM, 24 hours
Method: (§1) Cells were washed twice with ice cold phosphate-buffered saline (PBS) and harvested in protein lysis buffer [50 mM Tris (pH 7.4), 100 mM NaCl, 0.1 mM EDTA, 1 mM phenylmethylsulfonyl fluoride, 1 mM β-glycerophosphate, 2.5 mM sodium pyrophosphate, 1 mM Na3VO4, lx protease inhibitor (Roche) and PhosSTOP (Roche)]. Whole cell extracts were separated by SDS-polyacrylamide gel electrophoresis (SDS-PAGE) and electrotransferred onto polyvinylidene difluoride membranes. Membranes were probed with the following antibodies: anti-Ctip1 antibody (Abcam, ab19487), anti-TRIM24 antibody (Bethyl Laboratories, Inc), anti-RUNX1 antibody (A-2), anti-GAPDH (FL-335), anti-p21 (C-19), anti-Bax (N-20) antibodies (Santa Cruz Biotechnology, Inc.), anti-RUNX2, anti-RUNX3, anti-p53 antibodies (Cell Signaling Technology), anti-CBFβ antibody (FL-182, Santa Cruz Biotechnology, Inc.), anti-cleaved caspase-3 antibody (5A1E, Cell Signaling Technology), anti-PARP antibody (46D11, Cell Signaling Technology). For secondary antibodies, anti-rabbit IgG, or anti-mosue IgG HRP-linked antibodies (Cell Signaling Technology) were used. Blots were detected using Chemi-Lumi One Super (nacalai tesque, Inc.) and ChemiDoc™ XRS+ Imager (Bio-Rad Laboratories, Inc.), as recommended by the manufacturers. Protein levels were quantified with Image Lab Software (Bio-Rad Laboratories, Inc.).
To BV173 cells, MYL cells, SU-Ph2 cells, and SU/SR cells, 3 μM or 1 μM of Chb-M′ were administered. After 24 hours, proteins were extracted, and then subjected to the Western blotting method (see the above-described “Immunoblotting”) using an ABL antibody to confirm expressions of BCR-ABL fusion protein at protein levels. As a control, DMSO was administered.

LU99A = assay: Cell viability, lung adenocarcinoma LU99A; type: cell-based, human; conditions: LU99A (EGFR wild-type p53 wild-type), 48 hours
ABC-1 = assay: Cell viability, lung adenocarcinoma ABC-1; type: cell-based, human; conditions: ABC-1 (EGFR wild-type p53-mutated), 48 hours
RERF-LC-MS = assay: Cell viability, lung adenocarcinoma RERF-LC-MS; type: cell-based, human; conditions: RERF-LC-MS (EGFR wild-type p53-mutated), 48 hours
p53, p21, PUMA, and BAX = assay: Western blotting of apoptosis-related factors in lung adenocarcinoma cells; type: cell-based, human; conditions: A549 cells and LU99A cells, 1 μM, 24 hours
Method: Cells were washed twice with ice cold phosphate-buffered saline (PBS) and harvested in protein lysis buffer [50 mM Tris (pH 7.4), 100 mM NaCl, 0.1 mM EDTA, 1 mM phenylmethylsulfonyl fluoride, 1 mM β-glycerophosphate, 2.5 mM sodium pyrophosphate, 1 mM Na3VO4, lx protease inhibitor (Roche) and PhosSTOP (Roche)]. Whole cell extracts were separated by SDS-polyacrylamide gel electrophoresis (SDS-PAGE) and electrotransferred onto polyvinylidene difluoride membranes. […] Blots were detected using Chemi-Lumi One Super (nacalai tesque, Inc.) and ChemiDoc™ XRS+ Imager (Bio-Rad Laboratories, Inc.), as recommended by the manufacturers. Protein levels were quantified with Image Lab Software (Bio-Rad Laboratories, Inc.).
To A549 cells and LU99A cells, 1 μM Chb-M′ was administered. After 24 hours, the expression levels of apoptosis-related factors (p53, p21, PUMA, and BAX) were evaluated by the Western blotting method (see the above-described “Immunoblotting”). […]

[3] = test system: c-kit, phospho-c-Kit, AKT, phosphorylated AKT, Mitf; assay: Western blot of KIT signalling, LAD2 mast cells; type: cell-based, human; conditions: LAD2, 10 μM, 18 hours
Method: as §1
To the LAD2 cell line and the HMC-1.2 cell line, 10 μM Chb-M′ was administered. After culturing the cells for 18 hours, extracts were obtained from the cells, and the protein expression levels of c-kit, phospho-c-Kit, AKT, phosphorylated AKT, Mitf, and GAPDH were analyzed by the Western blot analysis (see the above-described “Immunoblotting”) using different antibodies. AKT is an important signaling protein downstream of c-kit. Mitf is a representative transcriptional driver for c-kit. As a control, DMSO was administered. In the figure, “KIT” indicates c-kit, “pKIT” indicates phosphorylated c-kit, and “pAKT” indicates phosphorylated AKT. As primary antibodies, an anti-c-Kit antibody (Ab81, manufactured by Cell Signaling Technology), an anti-phospho-c-Kit (Tyr719) antibody (manufactured by Cell Signaling Technology), an anti-Akt antibody (manufactured by Cell Signaling Technology), an anti-phospho-Akt antibody (Ser473) (manufactured by Cell Signaling Technology), an anti-Mitf antibody (manufactured by Cosmo Bio), and an anti-GAPDH antibody (0411, manufactured by Santa Cruz Biotechnology, Inc.) were used. As secondary antibodies, an ECL™ anti-mouse IgG horseradish peroxidase-linked whole antibody (manufactured by GE Healthcare) and an ECL™ anti-rabbit IgG linked whole antibody (manufactured by GE Healthcare) were used.

Kasumi-1 = conditions: Kasumi-1, p53mut(+); for IC50: 48 hours
SU/SR cells [4] = conditions: read-out: IC50 value; SU/SR (imatinib-resistant), 48 hours

## CN(C)CCCNC(=O)c1cc(NC(=O)c2cc(NC(=O)c3cc(NC(=O)c4cc(NC(=O)CCCNC(=O)c5nc(NC(=O)c6nc(NC(=O)c7cc(NC(=O)c8nc(NC(=O)CCNC(=O)CCCc9ccc(N(CCCl)CCCl)cc9)cn8C)cn7C)cn6C)cn5C)cn4C)cn3C)cn2C)cn1C [Chb-M′]
SU-Ph2 cells
  IC50 compared with that of imatinib: lower IC50 values
IL3, CSF2 and CSF2RB
  Expressions of RUNX1 target genes (IL3, CSF2, and CSF2RB), mRNA: effectively inhibited
[1]
  10 mg/kg dose relative to the amount necessary to gain medicinal effect: more than thirty times higher
  Tolerability in vivo: highly tolerable
[1]; 10 mg/kg body weight injection
  Platelets counts: slight decrease
SU/SR cells [2]; NOG mice with SU/SR
  H&E staining of bone marrow: homogeneity was lost
  Invasion of liver by transplanted PhALL cells (hCD45 staining): reduced
  Invasion of spleen by transplanted PhALL cells (hCD45 staining), compared with liver: same results
  hCD45 staining of bone marrow (human leukemia cells): most of the brown parts lost
SU/SR cells [2]; NOG mice with SU/SR (Ph+), 320 μg/kg IV twice a week
  Lengthening of overall survival periods: about 1.8 times
BCR-ABL fusion protein; BV173 cells
  p210BCR-ABL fusion protein: lost
BCR-ABL fusion protein; MYL cells
  p210BCR-ABL fusion protein: lost
BCR-ABL fusion protein; SU-Ph2 cells
  p190BCR-ABL fusion protein: lost
BCR-ABL fusion protein; SU/SR cells
  p190BCR-ABL fusion protein: lost
LU99A
  IC50 compared with the EGFR inhibitor (gefitinib): lower IC50 values
ABC-1
  IC50 compared with the EGFR inhibitor (gefitinib): lower IC50 values
RERF-LC-MS
  IC50 compared with the EGFR inhibitor (gefitinib): lower IC50 values
p53, p21, PUMA, and BAX
  p53 and p21 and apoptotic factors PUMA and BAX (protein): enhanced
[3]
  Expression of c-kit protein: suppressed
  Level of phosphorylated AKT protein: decreased
  Protein expression level of Mitf: not affected
  Total amount of AKT: not considerably changed
  phospho-c-Kit protein: suppressed
KG1a; p53null, concomitant use of Chb-M′ and PRIMA-1, Chou-Talalay, CI<1 synergism
  CI (Fa = 0.5): 2.01
KG1a; read-out: IC50 (μM) of Chb-M′ in concomitant use with PRIMA-1 (5 μM), p53null, 48 hours, with 5 μM PRIMA-1
  IC50: > 100 µM
KG1a; read-out: IC50 (μM) of Chb-M′ single agent administration, p53null, 48 hours
  IC50: > 100 µM
Kasumi-1; concomitant use of Chb-M′ and PRIMA-1, Chou-Talalay, CI<1 synergism
  CI (Fa = 0.5): 0.156
Kasumi-1; read-out: IC50 (μM) of Chb-M′ in concomitant use with PRIMA-1 (5 μM), with 5 μM PRIMA-1
  IC50: 0.359 µM
Kasumi-1; read-out: IC50 (μM) of Chb-M′ single agent administration
  IC50: > 100 µM
SU/SR cells [4]
  IC50: 44 nM
